Calls of active or inactive are those of the source. No cut-off for these calls is given here.
What was measured:
Carbonic anhydrase 9 = Carbonic anhydrase 9 (Homo sapiens, UniProt Q16790)
[1] = (§1) Cytotoxicity against human Hs 578T cells at 10 uM; type: functional; conditions: read-out: GI
MDA-MB-468 = assay: Cytotoxicity against human MDA-MB-468 cells at 10 uM; type: functional; conditions: read-out: GI
MCF7 = assay: Cytotoxicity against human MCF7 cells at 10 uM; type: functional; conditions: read-out: GI
T47D = assay: Cytotoxicity against human T47D cells at 10 uM; type: functional; conditions: read-out: GI
DU-145 = assay: Cytotoxicity against human DU145 cells at 10 uM; type: functional
PC-3 = assay: Cytotoxicity against human PC3 cells at 10 uM; type: functional; conditions: read-out: GI
A498 = assay: Cytotoxicity against human A498 cells at 10 uM; type: functional
[2] = (§2) Cytotoxicity against human NCI-ADR-RES cells at 10 uM; type: functional; conditions: read-out: GI
LOX IMVI = assay: Cytotoxicity against human LOXIMVI cells at 10 uM; type: functional; conditions: read-out: GI
OVCAR-3 = assay: Cytotoxicity against human OVCAR3 cells at 10 uM; type: functional
UACC-62 = assay: Cytotoxicity against human UACC62 cells at 10 uM; type: functional
SK-MEL-2 = assay: Cytotoxicity against human SK-MEL-2 cells at 10 uM; type: functional
SF-268 = assay: Cytotoxicity against human SF268 cells at 10 uM; type: functional
SW-620 = assay: Cytotoxicity against human SW620 cells at 10 uM; type: functional
SNB-75 = assay: Cytotoxicity against human SNB75 cells at 10 uM; type: functional; conditions: read-out: GI
KM12 = assay: Cytotoxicity against human KM12 cells at 10 uM; type: functional
HT-29 = assay: Cytotoxicity against human HT-29 cells at 10 uM; type: functional
HOP-92 = assay: Cytotoxicity against human HOP92 cells at 10 uM; type: functional; conditions: read-out: GI
NCI-H460 = assay: Cytotoxicity against human NCI-H460 cells at 10 uM; type: functional
A549 = assay: Cytotoxicity against human A549 cells at 10 uM; type: functional
SR = assay: Cytotoxicity against human SR cells at 10 uM; type: functional
MOLT-4 = assay: Cytotoxicity against human MOLT4 cells at 10 uM; type: functional; conditions: read-out: GI
RPMI-8226 = assay: Cytotoxicity against human RPMI8226 cells at 10 uM; type: functional
Hs-578T = assay: as §1; type: functional
NCI/ADR-RES = assay: as §2; type: functional
K562 = assay: Cytotoxicity against human K562 cells at 10 uM; type: functional; conditions: read-out: GI
HL-60(TB) = assay: Cytotoxicity against human HL-60(TB) cells at 10 uM; type: functional; conditions: read-out: GI

Row | SMILES | Ki (Carbonic anhydrase 9) [nM] | inhibition of growth at 10 µM (MDA-MB-468) [%] | inhibition of growth at 10 µM (MCF7) [%] | inhibition of growth at 10 µM (T47D) [%] | growth inhibition (GI) (DU-145) | inhibition of growth at 10 µM (PC-3) [%] | growth inhibition (GI) (A498) | inhibition of growth at 10 µM (LOX IMVI) [%] | growth inhibition (GI) (SW-620) | inhibition of growth at 10 µM (SNB-75) [%] | growth inhibition (GI) (HT-29) | inhibition of growth at 10 µM (HOP-92) [%] | growth inhibition (GI) (NCI-H460) | inhibition of growth at 10 µM (MOLT-4) [%] | other results
1 | Cc1cc(S(=O)(=O)NC(=N)NCc2ccc(S(N)(=O)=O)cc2)c(SCc2cccc(C(F)(F)F)c2)cc1Cl | 17 |  |  |  |  |  |  |  |  |  |  |  |  |  | 
2 | Cc1cc(S(=O)(=O)NC(=N)Nc2ccc(S(N)(=O)=O)cc2)c(SCc2cc3c(cc2Cl)OCO3)cc1Cl |  | 41 | 4 | 23 | inactive | 25 | inactive | 8 | inactive | 22 | inactive | 29 | inactive | 20 | inhibition of growth at 10 µM [1]: 2%; inhibition of growth at 10 µM [2]: 1%; inhibition of growth at 10 µM (OVCAR-3; read-out: GI): 12%; inhibition of growth at 10 µM (UACC-62; read-out: GI): 17%; inhibition of growth at 10 µM (SK-MEL-2; read-out: GI): 9%; inhibition of growth at 10 µM (SF-268; read-out: GI): 5%; inhibition of growth at 10 µM (KM12; read-out: GI): 8%; inhibition of growth at 10 µM (A549; read-out: GI): 4%; inhibition of growth at 10 µM (SR; read-out: GI): 25%; inhibition of growth at 10 µM (RPMI-8226; read-out: GI): 10%
3 | Cc1cc(S(=O)(=O)NC(=N)Nc2ccccc2S(N)(=O)=O)c(SCc2cccc3ccccc23)cc1Cl | 138 |  |  |  |  |  |  |  |  |  |  |  |  |  | 
4 | Cc1cc(S(=O)(=O)NC(=N)Nc2nnc(S(N)(=O)=O)s2)c(SCc2ccccc2)cc1Cl |  | 11 | 11 | 6 | inactive | 3 | inactive | 4 | inactive | 18 | inactive | 1 | inactive | 14 | growth inhibition (GI) (Hs-578T): inactive; growth inhibition (GI) (NCI/ADR-RES): inactive; growth inhibition (GI) (OVCAR-3): inactive; growth inhibition (GI) (UACC-62): inactive; growth inhibition (GI) (SK-MEL-2): inactive; growth inhibition (GI) (SF-268): inactive; growth inhibition (GI) (KM12): inactive; growth inhibition (GI) (A549): inactive; growth inhibition (GI) (SR): inactive; growth inhibition (GI) (RPMI-8226): inactive; inhibition of growth at 10 µM (K562): 2%; inhibition of growth at 10 µM (HL-60(TB)): 15%
